Reference: US4464385A, “Treatment of diabetic complications with hydantoins” (Alcon Laboratories, Inc., priority 1982, dated 1984)

Assays:
aldose reductase = details: U.S. Pat. No. 4,130,714; cited from earlier work
cataracts in rats = test: Prevention or retardation of cataracts in galactose-fed rats; format: in vivo, rat; details: 30% galactose diet, A,C,E 0.0025%, B,D 0.01%
How it was run: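 Rats given test compound mixed into diet (by % of total feed weight; 0.01% designed to supply 20 mg/kg/day) ad libitum for thirty days after a two-day chow acclimatization, twelve animals per treatment. Eyes examined by handheld ophthalmoscope and/or penlight and each eye graded.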

O=C1NC(=O)C2(CCSc3ccc(F)cc32)N1 (single isomer, unassigned) [d-6'-fluoro-spiro[imidazolidine-4,4'-thiochroman]-2,5' dione]
enhanced activity: activity in preventing chronic diabetic complications (aldose reductase)

CSc1ccc2c(c1)C1(CCO2)NC(=O)NC1=O (stereo not shown) [B]
24 eyes: Number of Eyes Observed, - (Normal) (cataracts in rats; Study Day 2) | Number of Eyes Observed, - (Normal) (cataracts in rats; Study Day 3) | Number of Eyes Observed, - (Normal) (cataracts in rats; Study Day 4)
22 eyes: Number of Eyes Observed, - (Normal) (cataracts in rats; Study Day 5) | Number of Eyes Observed, + (vacuole) (cataracts in rats; Study Day 20) | Number of Eyes Observed, S (snowflake) (cataracts in rats; Study Day 28)
6 eyes: Number of Eyes Observed, + (vacuole) (cataracts in rats; Study Day 10)
5 eyes: Number of Eyes Observed, + (vacuole) (cataracts in rats; Study Day 26)
0 eyes: Number of Eyes Observed, + (vacuole) (cataracts in rats; Study Day 2) | Number of Eyes Observed, N (nuclear cataract) (cataracts in rats; Study Day 2) | Number of Eyes Observed, S (snowflake) (cataracts in rats; Study Day 2) | Number of Eyes Observed, ± (cataracts in rats; Study Day 2) | Number of Eyes Observed, + (vacuole) (cataracts in rats; Study Day 3) | Number of Eyes Observed, N (nuclear cataract) (cataracts in rats; Study Day 3) | Number of Eyes Observed, S (snowflake) (cataracts in rats; Study Day 3) | Number of Eyes Observed, ± (cataracts in rats; Study Day 3) | Number of Eyes Observed, + (vacuole) (cataracts in rats; Study Day 4) | Number of Eyes Observed, N (nuclear cataract) (cataracts in rats; Study Day 4) | Number of Eyes Observed, S (snowflake) (cataracts in rats; Study Day 4) | Number of Eyes Observed, ± (cataracts in rats; Study Day 4) | Number of Eyes Observed, + (vacuole) (cataracts in rats; Study Day 5) | Number of Eyes Observed, N (nuclear cataract) (cataracts in rats; Study Day 5) | Number of Eyes Observed, S (snowflake) (cataracts in rats; Study Day 5) | Number of Eyes Observed, + (vacuole) (cataracts in rats; Study Day 6) | Number of Eyes Observed, N (nuclear cataract) (cataracts in rats; Study Day 6) | Number of Eyes Observed, S (snowflake) (cataracts in rats; Study Day 6) | Number of Eyes Observed, N (nuclear cataract) (cataracts in rats; Study Day 8) | Number of Eyes Observed, S (snowflake) (cataracts in rats; Study Day 8) | Number of Eyes Observed, N (nuclear cataract) (cataracts in rats; Study Day 10) | Number of Eyes Observed, S (snowflake) (cataracts in rats; Study Day 10) | Number of Eyes Observed, N (nuclear cataract) (cataracts in rats; Study Day 12) | Number of Eyes Observed, S (snowflake) (cataracts in rats; Study Day 12) | Number of Eyes Observed, N (nuclear cataract) (cataracts in rats; Study Day 14) | Number of Eyes Observed, S (snowflake) (cataracts in rats; Study Day 14) | Number of Eyes Observed, - (Normal) (cataracts in rats; Study Day 16) | Number of Eyes Observed, N (nuclear cataract) (cataracts in rats; Study Day 16) | Number of Eyes Observed, S (snowflake) (cataracts in rats; Study Day 16) | Number of Eyes Observed, - (Normal) (cataracts in rats; Study Day 18) | Number of Eyes Observed, N (nuclear cataract) (cataracts in rats; Study Day 18) | Number of Eyes Observed, S (snowflake) (cataracts in rats; Study Day 18) | Number of Eyes Observed, - (Normal) (cataracts in rats; Study Day 20) | Number of Eyes Observed, N (nuclear cataract) (cataracts in rats; Study Day 20) | Number of Eyes Observed, - (Normal) (cataracts in rats; Study Day 22) | Number of Eyes Observed, N (nuclear cataract) (cataracts in rats; Study Day 22) | Number of Eyes Observed, ± (cataracts in rats; Study Day 22) | Number of Eyes Observed, - (Normal) (cataracts in rats; Study Day 24) | Number of Eyes Observed, N (nuclear cataract) (cataracts in rats; Study Day 24) | Number of Eyes Observed, ± (cataracts in rats; Study Day 24) | Number of Eyes Observed, - (Normal) (cataracts in rats; Study Day 26) | Number of Eyes Observed, N (nuclear cataract) (cataracts in rats; Study Day 26) | Number of Eyes Observed, ± (cataracts in rats; Study Day 26) | Number of Eyes Observed, - (Normal) (cataracts in rats; Study Day 28) | Number of Eyes Observed, N (nuclear cataract) (cataracts in rats; Study Day 28) | Number of Eyes Observed, ± (cataracts in rats; Study Day 28) | Number of Eyes Observed, - (Normal) (cataracts in rats; Study Day 30) | Number of Eyes Observed, N (nuclear cataract) (cataracts in rats; Study Day 30) | Number of Eyes Observed, ± (cataracts in rats; Study Day 30)
91.7%: % of Total Eyes, - (Normal) (cataracts in rats; Study Day 5) | % of Total Eyes, + (vacuole) (cataracts in rats; Study Day 20) | % of Total Eyes, S (snowflake) (cataracts in rats; Study Day 28)
29.2%: % of Total Eyes, - (Normal) (cataracts in rats; Study Day 12) | % of Total Eyes, S (snowflake) (cataracts in rats; Study Day 22)
20.8%: % of Total Eyes, + (vacuole) (cataracts in rats; Study Day 26)
11 eyes: Number of Eyes Observed, + (vacuole) (cataracts in rats; Study Day 24)
13 eyes: Number of Eyes Observed, S (snowflake) (cataracts in rats; Study Day 24)
0%: % of Total Eyes, + (vacuole) (cataracts in rats; Study Day 2) | % of Total Eyes, N (nuclear cataract) (cataracts in rats; Study Day 2) | % of Total Eyes, S (snowflake) (cataracts in rats; Study Day 2) | % of Total Eyes, + (vacuole) (cataracts in rats; Study Day 3) | % of Total Eyes, N (nuclear cataract) (cataracts in rats; Study Day 3) | % of Total Eyes, S (snowflake) (cataracts in rats; Study Day 3) | % of Total Eyes, + (vacuole) (cataracts in rats; Study Day 4) | % of Total Eyes, N (nuclear cataract) (cataracts in rats; Study Day 4) | % of Total Eyes, S (snowflake) (cataracts in rats; Study Day 4) | % of Total Eyes, + (vacuole) (cataracts in rats; Study Day 5) | % of Total Eyes, N (nuclear cataract) (cataracts in rats; Study Day 5) | % of Total Eyes, S (snowflake) (cataracts in rats; Study Day 5) | % of Total Eyes, + (vacuole) (cataracts in rats; Study Day 6) | % of Total Eyes, N (nuclear cataract) (cataracts in rats; Study Day 6) | % of Total Eyes, S (snowflake) (cataracts in rats; Study Day 6) | % of Total Eyes, N (nuclear cataract) (cataracts in rats; Study Day 8) | % of Total Eyes, S (snowflake) (cataracts in rats; Study Day 8) | % of Total Eyes, N (nuclear cataract) (cataracts in rats; Study Day 10) | % of Total Eyes, S (snowflake) (cataracts in rats; Study Day 10) | % of Total Eyes, N (nuclear cataract) (cataracts in rats; Study Day 12) | % of Total Eyes, S (snowflake) (cataracts in rats; Study Day 12) | % of Total Eyes, N (nuclear cataract) (cataracts in rats; Study Day 14) | % of Total Eyes, S (snowflake) (cataracts in rats; Study Day 14) | % of Total Eyes, - (Normal) (cataracts in rats; Study Day 16) | % of Total Eyes, N (nuclear cataract) (cataracts in rats; Study Day 16) | % of Total Eyes, S (snowflake) (cataracts in rats; Study Day 16) | % of Total Eyes, - (Normal) (cataracts in rats; Study Day 18) | % of Total Eyes, N (nuclear cataract) (cataracts in rats; Study Day 18) | % of Total Eyes, S (snowflake) (cataracts in rats; Study Day 18) | % of Total Eyes, - (Normal) (cataracts in rats; Study Day 20) | % of Total Eyes, N (nuclear cataract) (cataracts in rats; Study Day 20) | % of Total Eyes, - (Normal) (cataracts in rats; Study Day 22) | % of Total Eyes, N (nuclear cataract) (cataracts in rats; Study Day 22) | % of Total Eyes, - (Normal) (cataracts in rats; Study Day 24) | % of Total Eyes, N (nuclear cataract) (cataracts in rats; Study Day 24) | % of Total Eyes, - (Normal) (cataracts in rats; Study Day 26) | % of Total Eyes, N (nuclear cataract) (cataracts in rats; Study Day 26) | % of Total Eyes, - (Normal) (cataracts in rats; Study Day 28) | % of Total Eyes, N (nuclear cataract) (cataracts in rats; Study Day 28) | % of Total Eyes, - (Normal) (cataracts in rats; Study Day 30) | % of Total Eyes, N (nuclear cataract) (cataracts in rats; Study Day 30)
4 eyes: Number of Eyes Observed, ± (cataracts in rats; Study Day 16)
9 eyes: Number of Eyes Observed, ± (cataracts in rats; Study Day 6) | Number of Eyes Observed, - (Normal) (cataracts in rats; Study Day 10) | Number of Eyes Observed, ± (cataracts in rats; Study Day 10)
18 eyes: Number of Eyes Observed, + (vacuole) (cataracts in rats; Study Day 14)
25.0%: % of Total Eyes, + (vacuole) (cataracts in rats; Study Day 10)
78.0%: % of Total Eyes, + (vacuole) (cataracts in rats; Study Day 14)
17 eyes: Number of Eyes Observed, + (vacuole) (cataracts in rats; Study Day 22)
62.5%: % of Total Eyes, - (Normal) (cataracts in rats; Study Day 6)
45.8%: % of Total Eyes, + (vacuole) (cataracts in rats; Study Day 24)
37.5%: % of Total Eyes, - (Normal) (cataracts in rats; Study Day 10)
10 eyes: Number of Eyes Observed, - (Normal) (cataracts in rats; Study Day 8) | Number of Eyes Observed, + (vacuole) (cataracts in rats; Study Day 12)
19 eyes: Number of Eyes Observed, S (snowflake) (cataracts in rats; Study Day 26)
20 eyes: Number of Eyes Observed, + (vacuole) (cataracts in rats; Study Day 16)
70.8%: % of Total Eyes, + (vacuole) (cataracts in rats; Study Day 22)
2 eyes: Number of Eyes Observed, ± (cataracts in rats; Study Day 5) | Number of Eyes Observed, + (vacuole) (cataracts in rats; Study Day 8) | Number of Eyes Observed, + (vacuole) (cataracts in rats; Study Day 28)
8.3%: % of Total Eyes, + (vacuole) (cataracts in rats; Study Day 8) | % of Total Eyes, + (vacuole) (cataracts in rats; Study Day 28)
12.5%: % of Total Eyes, - (Normal) (cataracts in rats; Study Day 14)
100.0%: % of Total Eyes, - (Normal) (cataracts in rats; Study Day 2) | % of Total Eyes, - (Normal) (cataracts in rats; Study Day 3) | % of Total Eyes, - (Normal) (cataracts in rats; Study Day 4)
23 eyes: Number of Eyes Observed, + (vacuole) (cataracts in rats; Study Day 18) | Number of Eyes Observed, S (snowflake) (cataracts in rats; Study Day 30)
1 eyes: Number of Eyes Observed, ± (cataracts in rats; Study Day 18) | Number of Eyes Observed, S (snowflake) (cataracts in rats; Study Day 20) | Number of Eyes Observed, ± (cataracts in rats; Study Day 20) | Number of Eyes Observed, + (vacuole) (cataracts in rats; Study Day 30)
95.8%: % of Total Eyes, + (vacuole) (cataracts in rats; Study Day 18) | % of Total Eyes, S (snowflake) (cataracts in rats; Study Day 30)
7 eyes: Number of Eyes Observed, - (Normal) (cataracts in rats; Study Day 12) | Number of Eyes Observed, ± (cataracts in rats; Study Day 12) | Number of Eyes Observed, S (snowflake) (cataracts in rats; Study Day 22)
4.2%: % of Total Eyes, S (snowflake) (cataracts in rats; Study Day 20) | % of Total Eyes, + (vacuole) (cataracts in rats; Study Day 30)
3 eyes: Number of Eyes Observed, - (Normal) (cataracts in rats; Study Day 14) | Number of Eyes Observed, ± (cataracts in rats; Study Day 14)
15 eyes: Number of Eyes Observed, - (Normal) (cataracts in rats; Study Day 6)
54.2%: % of Total Eyes, S (snowflake) (cataracts in rats; Study Day 24)
12 eyes: Number of Eyes Observed, ± (cataracts in rats; Study Day 8)
41.6%: % of Total Eyes, - (Normal) (cataracts in rats; Study Day 8) | % of Total Eyes, + (vacuole) (cataracts in rats; Study Day 12)
79.2%: % of Total Eyes, S (snowflake) (cataracts in rats; Study Day 26)
83.3%: % of Total Eyes, + (vacuole) (cataracts in rats; Study Day 16)
